According to patent US8617906B2, “Identification and screening of triptolide target molecules” (priority 2004, dated 2013):

Assays:
[1] = biological target: T1, HSP 90β (PG771) (Homo sapiens, UniProt P08238); experiment: Isolation of proteins binding 3H-triptolide in Jurkat cells (FPLC, 2D gel, fluorography, MALDI-MS); settings: 3H-labeled compound incubated with Jurkat cells
T1 construct: Jurkat cells from expanding cultures were labeled with; endogenous in cells; host or cells: Jurkat
Protocol: (§1) Triptolide target molecules were isolated and identified by purification and identification of molecules that bind ^3H-triptolide. Jurkat cells from expanding cultures were labeled with ^3H-triptolide by cultivation at 37° C. with 5% CO2 for a period of time between a few hours and overnight (usually 6-7 hours) and harvested by centrifugation and washing in ice-cold phosphate buffered saline. The cells (usually 1-3×10^6/ml) were generally labeled with ^3H-triptolide to a final concentration of 35 nM (100 μCi/200 ml of medium). […]
(§2) The cells were extracted with M-per buffer (Pierce) and homogenized in presence of a protease inhibitor cocktail, sometimes including other reagents such as deoxyribonuclease (DNase). […] When the extracts components were found not to be sufficiently purified, enriched or reduced in number, 2D gel electrophoresis was employed, followed by fluorography for ^3H-associated radioactivity detection, and MALDI/MS of the corresponding peptides (after proteolysis) and peptide fingerprinting. […]
(§3) MALDI-MS peptide fingerprinting analysis identified HSP 90β (PG771) in fraction #4 and L-plastin (PG772) in fraction #9. […] A positive spot on the film (fluorographically positive, therefore positive for ^3H-associated radioactivity) was seen near the 29 kDa protein marker. […]

[2] = biological target: T2, L-plastin (PG772) (Homo sapiens, UniProt P13796); experiment: Isolation of proteins binding 3H-triptolide in Jurkat cells; settings: 3H-labeled compound incubated with Jurkat cells
T2 construct: Jurkat cells from expanding cultures were labeled with; endogenous in cells; host or cells: Jurkat
T2 sequence (P13796 whole entry): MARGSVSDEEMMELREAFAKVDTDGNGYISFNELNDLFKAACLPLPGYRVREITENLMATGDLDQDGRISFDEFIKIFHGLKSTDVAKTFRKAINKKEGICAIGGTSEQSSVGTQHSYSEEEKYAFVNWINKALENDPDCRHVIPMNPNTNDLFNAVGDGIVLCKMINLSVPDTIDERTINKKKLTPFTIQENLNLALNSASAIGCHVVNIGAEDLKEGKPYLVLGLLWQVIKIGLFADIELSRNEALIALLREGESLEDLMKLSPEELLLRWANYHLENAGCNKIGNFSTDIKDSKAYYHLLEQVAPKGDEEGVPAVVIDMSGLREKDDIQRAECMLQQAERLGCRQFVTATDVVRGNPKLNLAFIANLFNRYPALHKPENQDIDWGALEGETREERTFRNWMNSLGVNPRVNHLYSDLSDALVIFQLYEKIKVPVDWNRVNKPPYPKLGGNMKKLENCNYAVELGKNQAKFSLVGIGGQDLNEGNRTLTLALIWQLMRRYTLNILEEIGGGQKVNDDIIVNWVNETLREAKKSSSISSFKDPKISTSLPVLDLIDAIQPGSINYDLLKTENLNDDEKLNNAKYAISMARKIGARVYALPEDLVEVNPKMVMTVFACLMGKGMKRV
Protocol: as §1, §2, §3

[3] = biological target: T3, 14-3-3 ε (PG773) (Homo sapiens, UniProt P62258); experiment: as above; settings: 3H-labeled compound incubated with Jurkat cells
T3 construct: endogenous in cells; host or cells: Jurkat
T3 sequence (P62258 whole entry): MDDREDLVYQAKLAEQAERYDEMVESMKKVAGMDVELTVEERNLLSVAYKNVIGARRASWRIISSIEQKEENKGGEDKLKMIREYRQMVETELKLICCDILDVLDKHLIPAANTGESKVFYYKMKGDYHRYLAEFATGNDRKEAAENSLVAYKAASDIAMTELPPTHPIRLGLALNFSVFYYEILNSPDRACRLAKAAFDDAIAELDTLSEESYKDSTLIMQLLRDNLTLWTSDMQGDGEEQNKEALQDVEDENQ
Protocol: as §1, §2, §3

[4] = biological target: T4, Protein Disulfide Isomerase (PG775) (Homo sapiens, UniProt P07237); experiment: as above; settings: 3H-labeled compound incubated with Jurkat cells
T4 construct: endogenous in cells; host or cells: Jurkat
T4 sequence (P07237 18-508): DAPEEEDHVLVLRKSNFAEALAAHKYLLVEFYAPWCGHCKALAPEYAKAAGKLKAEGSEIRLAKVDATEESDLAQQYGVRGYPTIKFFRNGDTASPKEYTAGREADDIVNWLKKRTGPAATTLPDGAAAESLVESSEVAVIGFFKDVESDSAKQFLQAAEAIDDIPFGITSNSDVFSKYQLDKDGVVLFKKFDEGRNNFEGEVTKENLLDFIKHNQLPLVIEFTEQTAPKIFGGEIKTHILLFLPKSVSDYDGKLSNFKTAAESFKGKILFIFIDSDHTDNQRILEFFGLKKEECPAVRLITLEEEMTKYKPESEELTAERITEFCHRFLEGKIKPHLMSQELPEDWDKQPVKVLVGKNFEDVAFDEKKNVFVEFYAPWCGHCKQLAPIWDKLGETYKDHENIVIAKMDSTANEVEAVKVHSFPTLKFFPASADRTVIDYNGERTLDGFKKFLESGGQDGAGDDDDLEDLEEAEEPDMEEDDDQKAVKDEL
Protocol: (§4) Triptolide target molecules were isolated and identified by purification and identification of molecules that bind ^3H-triptolide. Jurkat cells from expanding cultures were labeled with ^3H-triptolide by cultivation at 37° C. with 5% CO2 for a period of time between a few hours and overnight (usually 6-7 hours) and harvested by centrifugation and washing in ice-cold phosphate buffered saline. The cells (usually 1-3×10^6/ml) were generally labeled with ^3H-triptolide to a final concentration of 35 nM (100 μCi/200 ml of medium). Collected cell pellets were pooled, and the cells were either extracted and subjected to separation and purification at that time, or were frozen and stored at −20° C. as pellets for extraction and investigation at a later time.
as §2

[5] = biological target: T5, Thioredoxin Reductase (PG774) (Homo sapiens, UniProt Q16881); experiment: as above; settings: 3H-labeled compound incubated with Jurkat cells
T5 construct: endogenous in cells; host or cells: Jurkat
T5 sequence (Q16881 151-649 limits assumed): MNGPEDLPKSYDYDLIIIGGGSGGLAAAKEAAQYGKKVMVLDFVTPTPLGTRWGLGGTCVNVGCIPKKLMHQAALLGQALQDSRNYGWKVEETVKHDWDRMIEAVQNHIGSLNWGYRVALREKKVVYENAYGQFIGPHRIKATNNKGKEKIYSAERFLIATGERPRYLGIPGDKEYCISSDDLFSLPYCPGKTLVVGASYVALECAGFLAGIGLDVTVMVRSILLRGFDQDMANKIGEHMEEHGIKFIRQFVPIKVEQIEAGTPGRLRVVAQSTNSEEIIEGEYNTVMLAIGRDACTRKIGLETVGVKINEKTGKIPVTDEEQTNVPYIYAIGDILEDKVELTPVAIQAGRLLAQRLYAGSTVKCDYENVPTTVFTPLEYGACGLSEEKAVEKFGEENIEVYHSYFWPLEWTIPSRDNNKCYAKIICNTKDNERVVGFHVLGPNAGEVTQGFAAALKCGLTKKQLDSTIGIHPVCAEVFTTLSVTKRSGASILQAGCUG
Protocol: as §4, §2

[6] = biological target: T6, Eukaryotic Translation Elongation Factor 2 (EEF2) (PG786) (Homo sapiens, UniProt P13639); experiment: as above; settings: 3H-labeled Jurkat cell extract
T6 construct: endogenous in cells; host or cells: Jurkat
Protocol: as §4, §2

[7] = test system: NF-κB; settings: cited from earlier work
[8] = test system: p53 pathway; settings: cited from earlier work
[9] = test system: dopaminergic neurons; settings: cited from earlier work
[10] = test system: human T cell lymphoma (Jurkat) cells; settings: cited from earlier work

T1 sequence (P08238 whole entry): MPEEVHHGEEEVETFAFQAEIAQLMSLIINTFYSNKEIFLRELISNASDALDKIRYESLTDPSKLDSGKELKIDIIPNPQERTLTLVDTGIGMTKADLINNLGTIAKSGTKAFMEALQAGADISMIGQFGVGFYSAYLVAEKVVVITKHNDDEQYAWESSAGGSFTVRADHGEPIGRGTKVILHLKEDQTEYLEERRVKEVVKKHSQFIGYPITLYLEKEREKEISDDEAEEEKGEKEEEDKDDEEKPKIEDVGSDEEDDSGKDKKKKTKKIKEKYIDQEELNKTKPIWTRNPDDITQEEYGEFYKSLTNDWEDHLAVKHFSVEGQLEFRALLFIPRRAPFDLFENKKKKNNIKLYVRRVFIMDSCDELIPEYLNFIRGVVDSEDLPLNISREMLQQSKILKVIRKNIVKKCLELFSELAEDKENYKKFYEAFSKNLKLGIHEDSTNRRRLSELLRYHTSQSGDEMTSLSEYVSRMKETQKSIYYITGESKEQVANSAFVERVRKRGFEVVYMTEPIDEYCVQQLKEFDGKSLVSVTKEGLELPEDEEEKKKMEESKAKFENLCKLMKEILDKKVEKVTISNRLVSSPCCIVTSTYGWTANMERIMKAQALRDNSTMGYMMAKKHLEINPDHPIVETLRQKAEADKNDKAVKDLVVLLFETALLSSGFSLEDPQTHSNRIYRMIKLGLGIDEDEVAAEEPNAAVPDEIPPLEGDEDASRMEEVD

For `CC(C)[C@]12O[C@H]1[C@@H]1O[C@]13[C@]1(O[C@H]1C[C@H]1C4=C(CC[C@@]13C)C(=O)OC4)[C@@H]2O` [triptolide], the “3H-associated protein identified as triptolide target: HSP 90β” value [1] was “identified”, the “3H-associated protein identified as triptolide target: L-plastin” value [2] was “identified” and the “3H-associated protein identified as triptolide target: 14-3-3 ε” value [3] was “identified”. For the same compound, the “3H-associated protein identified as triptolide target: Protein Disulfide Isomerase” value [4] was “identified”, the “3H-associated protein identified as triptolide target: Thioredoxin Reductase” value [5] was “identified” and the “3H-associated protein identified as triptolide target: EEF2” value [6] was “identified”. The NF-κB activation [7] was “inhibit NF-κB activation”, the “cell cycle arrest induced by p21 after p53 activation” value [8] was “inhibiting the cell cycle arrest induced by p21 after p53 activation” and the “LPS-induced decrease in 3H-dopamine uptake and loss of tyrosine hydroxylase-positive neurons” value [9] was “attenuates”. The cytotoxicity [10] was “cytotoxicity in human T cell lymphoma (Jurkat) cells”.
